According to patent US5756121A, “Antibiotic formulation and use for drug resistant infections” (NeXstar Pharmaceuticals, Inc., priority 1995, dated 1998):
Where “and” joins values, the source holds several entries; their conditions need not be identical. Identical values can stand only once.

What was measured:
[1] = tested on: M. tuberculosis, drug susceptible strain H37RV; assay: Activity against drug susceptible TB in infected human monocyte-derived macrophages; type: cell-based, Mycobacterium tuberculosis (in human macrophages); conditions: for CFU: duplicate values
[2] = mice, 150 mg/kg; known in the art; cited from earlier work
Pseudomonas aeruginosa = assay: Efficacy and toxicity in Pseudomonas infected mice (mortality); type: in vivo, Pseudomonas aeruginosa (clinical isolate) in CF-1 mice
Method: The efficacy and toxicity of liposomal amikacin in Pseudomonas infected mice was tested. CF-1 mice were used (females, 6-8 weeks old). The mice were obtained from Jackson Labs. A clinical isolate of Pseudomonas aeruginosa was obtained on a Mueller Hinton/MacConkey blood agar plate. The organisms were transferred to a Mueller Hinton plate and grown for 24 hours. Colonies were transferred to saline and grown for 48 hours. The samples were frozen in saline containing 15% fetal calf serum at 1×10^8 organisms/ml (MacFarland Standard). The colonies were stored at -70° C. The colonies were thawed and grown in a Mueller Hinton plate for 24 hours. The bacteria were adjusted to 8×10^6 organisms/ml in saline containing talc (62.5 mg/ml) and 1 ml was injected intraperitoneal. A culture of inoculum on MH agar for 24 hours determined that approximately 7×10^6 cfu were delivered per mouse. Liposomal amikacin and empty liposomes were prepared as set out in Example 2. […] The lipid concentration was 95.31 mg/ml and the amikacin concentration was 23.54 mg/ml (0.25 drug/lipid ratio). The pH of the solution containing the formulation was 7.31. […] The concentration of the free amikacin solution was 23.54 mg/ml. The pH of the solution containing the liposomes was 7.33.
Mice were treated with 40 mg/kg (drug per body-weight), 80 mg/kg, 120 mg/kg and 240 mg/kg of liposomal amikacin. Mice were also treated with 40 mg/kg, 80 mg/kg, and 120 mg/kg of free amikacin. The drugs were administered intravenously in the caudal vein. Two doses were given; one at four hours after infection and one at twenty-four hours after infection.

in vivo = assay: in vivo; design: species or system mouse (C57B1/6); conditions: mouse
Method: Amikacin content was measured in mouse (C57B1/6, females 2-3 months old) plasma after injection (i.v.) of free amikacin or liposomal amikacin (100 mg/kg). Liposomal amikacin was prepared as described in Example 2. Blood samples were obtained at various time intervals. The samples were collected by removing 100 microliters of blood, retroorbitally, from nonanesthetized mice. The samples were collected in heparinized capillary pipets which were plugged with modeling clay. The samples were centrifuged at 3250 rpm (20 cm rotor) for 10 minutes. The samples were analyzed using a radioimmunoassay (Diagnostic Products). The liposomal amikacin formulation contained liposomes with an average size of 43.6 nm (median diameter). The amikacin concentration was 10.09 mg/ml and the total lipid concentration was 56.8 mg/ml (drug to lipid ratio […]).

MAC (101, type 1) = assay: Treatment of MAC-infected beige mice, first experiment (organism burden in spleen, liver, lung); type: in vivo
Method: The testing of liposome encapsulated amikacin for the treatment of MAC was performed using a murine model. Beige mice (C57B1/6bg^j /bg^j) were infected with MAC (101, type 1). The mice were infected by injection of 1×10^7 Colony Forming Units (cfu) in the mouse tail vein (i.v.). Three experiments were performed. In the first experiment, 40, 80 and 120 milligrams of amikacin (liposomal and free) per kilogram of mouse body-weight was given i.v. daily for 5 days, beginning 7 days after infection. The animals were sacrificed 5 days after treatment was completed and the liver, lung and spleen tissue were plated. Quantitation of organisms in liver, spleen and lung tissue was performed. The cfu were determined by growth on Middlebrook 7h11 agar plates. Untreated and empty liposomes were used as controls.
The liposomes were prepared as in Example 1. This experiment was performed in two identical parts. The liposomes in the first part were of an average size of 49.8 nm and the average size of the liposomes in the second part were 73.7 nm (mean diameter). The amikacin concentration was either 15.0 mg/ml or 13.21 mg/ml and the total lipid concentration was either 121 mg/ml or 55.7 mg/ml respectively (drug to lipid ratios: 0.123, 0.24). Free drug for all experiments was prepared in the same buffer that the liposomal formulations were contained in.

Structure (SMILES): NCC[C@H](O)C(=O)N[C@@H]1C[C@H](N)[C@@H](O[C@H]2O[C@H](CN)[C@@H](O)[C@H](O)[C@H]2O)[C@H](O)[C@H]1O[C@H]1O[C@H](CO)[C@@H](O)[C@H](N)[C@H]1O [amikacin]
- inhibition / killing of drug susceptible bacteria (in words) ([1]; 1 μg/ml): inhibited the growth of the bacteria
- CFU ([1]; 1 μg/ml, day 4): 50 1 × 10^3 cfu per monolayer and 60 1 × 10^3 cfu per monolayer
- CFU ([1]; 1 μg/ml, day 7): 900 1 × 10^3 cfu per monolayer and 800 1 × 10^3 cfu per monolayer
- inhibition / killing of drug susceptible bacteria (in words) ([1]; 2 μg/ml, day 4): inhibition
- CFU ([1]; 2 μg/ml, day 4): 20 1 × 10^3 cfu per monolayer
- CFU ([1]; 2 μg/ml, day 7): 40 1 × 10^3 cfu per monolayer and 50 1 × 10^3 cfu per monolayer
- inhibition / killing of drug susceptible bacteria (in words) ([1]; 4 μg/ml, day 4): killing at day 4
- CFU ([1]; 4 μg/ml, day 4): 4 1 × 10^3 cfu per monolayer and 5 1 × 10^3 cfu per monolayer
- CFU ([1]; 4 μg/ml, day 7): 1.5 1 × 10^3 cfu per monolayer and 3 1 × 10^3 cfu per monolayer
- lethality (in words) [2]: will kill many of the mice injected
- Mortality #died/#tested (Pseudomonas aeruginosa; 40 mg/kg i.v., two doses (4 h and 24 h after infection), 24 hours post infection): 1/4
- Mortality #died/#tested (Pseudomonas aeruginosa; 40 mg/kg i.v., two doses, 30 hours post infection): 1/4
- Mortality #died/#tested (Pseudomonas aeruginosa; 40 mg/kg i.v., two doses, 48 hours post infection): 1/4
- Mortality #died/#tested (Pseudomonas aeruginosa; 40 mg/kg i.v., two doses, 72 hours post infection): 1/4
- Mortality #died/#tested (Pseudomonas aeruginosa; 80 mg/kg i.v., two doses (4 h and 24 h after infection), 24 hours post infection): 0/6
- Mortality #died/#tested (Pseudomonas aeruginosa; 80 mg/kg i.v., two doses, 30 hours post infection): 0/6
- Mortality #died/#tested (Pseudomonas aeruginosa; 80 mg/kg i.v., two doses, 48 hours post infection): 0/6
- Mortality #died/#tested (Pseudomonas aeruginosa; 80 mg/kg i.v., two doses, 72 hours post infection): 0/6
- Mortality #died/#tested (Pseudomonas aeruginosa; 120 mg/kg i.v., two doses (4 h and 24 h after infection), 24 hours post infection): 0/6
- Mortality #died/#tested (Pseudomonas aeruginosa; 120 mg/kg i.v., two doses, 30 hours post infection): 0/6
- Mortality #died/#tested (Pseudomonas aeruginosa; 120 mg/kg i.v., two doses, 48 hours post infection): 0/6
- Mortality #died/#tested (Pseudomonas aeruginosa; 120 mg/kg i.v., two doses, 72 hours post infection): 0/6
- Average plasma concentration of amikacin (in vivo; 100 mg/kg i.v., 6 hours): none detected
- concentration at 5 min (in vivo; in vivo, iv, 100 mg/kg): 406 µg/mL
- concentration at 0.25 h (in vivo; in vivo, iv, 100 mg/kg): 106 µg/mL
- concentration at 2 h (in vivo; in vivo, iv, 100 mg/kg): 65 µg/mL
- Lung log cfu/gram (MAC (101, type 1); 40 mg/kg i.v. daily for 5 days): 6.16 log
- Lung log cfu/gram (MAC (101, type 1); 80 mg/kg i.v. daily for 5 days): 6.11 log
- Lung log cfu/gram (MAC (101, type 1); 120 mg/kg i.v. daily for 5 days): 6.00 log
